Results on three molecules are retold here after US12274751B2, “Composition and method of the use of colchicine oral liquid” (priority 2016, dated 2025).

One data set is described as follows: in vitro. Conditions: human, Caco-2. How it is done: To verify the Caco-2 cell monolayers were properly formed, aliquots of the cell buffers were analyzed by fluorescence to determine the transport of the impermeable dye Lucifer Yellow.
Data set [1] is described as follows: Stability of colchicine solution, colchicine assay (% label claim). Type of data set: physicochemical. To be noted: API (colchicine drug substance), calculated on the anhydrous, solvent-free basis. As for the experimental part: The colchicine solution is formulated and assayed for colchicine levels. Stability of the claimed formulation was tested at room temperature, 30° C., and 40° C. and assayed for the colchicine. […] The fact that the oral solution was so stable after 6 months at an accelerated temperature (40 degrees Celsius, which corresponds to 24 months at room temperature) was quite surprising. Solutions of colchicine for oral administration to humans have not been developed because they were believed to be too unstable. The data presented herein show for the first time that an oral colchicine solution can remain stable with minimal degradants and thus have a long shelf life consistent with commercial formulations.
The colchicine solution in Table 4 was packaged in a 190 mL HDPE bottle and assayed by HPLC cUSP.
The label claim of the liquid solution is 0.12 mg/ml and the assay results of the active ingredient are reported as percent of label claim. For instance, the label claim of an exemplary colchicine solution of the invention is 0.12 mg/ml. The FDA requirement for stability results for drugs is 90-110% label claim.

The conditions of data set [2]: in the presence of glycerin; Habib et al. 1989; cited from earlier work.

Structures are written as SMILES.

With `COCCc1ccc(OCC(O)CNC(C)C)cc1` (centres unmarked) [metoprolol], in “in vitro”, the Papp A→B was found to be 13.7 ×10⁻⁶ cm/s and the Papp B→A came out at 27.2 ×10⁻⁶ cm/s.
Take `COc1cc2c(c(OC)c1OC)-c1ccc(OC)c(=O)cc1[C@@H](NC(C)=O)CC2` [Colchicine, (−)-N-[(7S,12aS)-1,2,3,10-tetramethoxy-9-oxo-5,6,7,9-tetrahydrobenzo[a]heptalen-7-yl]-acetamide]: the “Stability Results (% Label Claim)” value in data set [1] is recorded as 91.8% Label Claim. In addition, the “loss by photodegradation in solution” value in data set [2] was at most 50%.
With `CNC(=C[N+](=O)[O-])NCCSCc1ccc(CN(C)C)o1` [ranitidine], in the data set “in vitro”, the Papp A→B came out at 0.27 ×10⁻⁶ cm/s.
